Results on eight compounds are retold here after patent US20260364184A1, “COMPOUND BASED ON OXOISOINDOLINYL-SUBSTITUTED TETRAHYDROPYRIMIDINE-DIONE AND USE THEREOF” (GLUETACS THERAPEUTICS (SHANGHAI) CO., LTD., priority 2023, published 2026).

Common to all, as to assay type: cell-based
Experiment [1] has as its system Human Multiple myeloma cell line (MM.1S). As to the kind of experiment: Inhibition of MM.1S cell proliferation (CellTiter luminescent viability). Particulars: Homo sapiens, MM1.S, Table IA5, IRAK4 inhibitor-based, 96 hours; for inhibition at 0.01 µM: 10 nM, read-out: Inhibition Rate at 10 nM (%); for inhibition at 0.5 µM: 500 nM, read-out: Inhibition Rate at 500 nM (%). The essentials: (§1)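 IC50 is fitted from luminescent viability (CellTiter-Meiluncell) curves. Nine-point, 5-fold dilution series (top stock 2000 μM) are added at 0.5 μL per 100 μL medium to cells plated the day before, with growth at 37 °C and 5% CO2.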

A short description of experiment [2]: Inhibition of RPMI-8226 cell proliferation (CellTiter luminescent viability). Particulars: Homo sapiens; Table IA4, IRAK4 inhibitor-based; RPMI-8226, 10 nM, 96 hours; read-out: Inhibition Rate at 10 nM (%). On the procedure: (§2) The tumor cells used herein were cultured in a cell culture medium listed in table 3 at 37 °C in an incubator with 5% CO2. Prior to experimentation, all cell lines used were correctly identified by STR profiling, and tested negative for mycoplasma contamination using a mycoplasma detection kit through routine screenings.
(§3) The IC50 values of the compounds of the present disclosure (including the compounds in Table 1, Table 2, and Examples 1-468) were determined using the CellTiter-Meiluncell Luminescent Cell Viability Assay Kit from Dalian Meilun Biotech Co., Ltd. The detailed procedure is as follows: Tumor cells were seeded in 96-well cell culture plates at the densities specified in Table 4. On the following day, the test compounds of the present disclosure were subjected to serial dilution. The dilution can be performed according to one of the following two methods: • (1) The first dilution method: The test compounds of the present disclosure (including the compounds in Table 1, Table 2, and Examples 1-468) were subjected to 5-fold serial dilutions starting from a highest concentration of 2000 μM, resulting in a total of 9 concentrations from high to low (2000, 400, 80, 16, 3.2, 0.64, 0.128, 0.0256, 0.00512 μM). Subsequently, 0.5 μL of the test compound dilution was transferred into the 96-well plate containing the cells, with each well containing 100 μL of cell culture medium. […] Into the 96-well plate, the diluted test compounds and corresponding detection reagents were added, resulting in final test compound concentrations of 500 nM and 10 nM, respectively. The experimental procedure is described below using the diluted 2 μM test compound as an example.
(§4) 0.5 μL of the aforementioned diluted compound of the present disclosure (including the compounds in Table 1, Table 2, and Examples 1-468) was added to the seeded cells in 100 μL of medium, yielding a final test compound concentration of 10 nM. After the cells were treated with the compounds of the present disclosure for a specified period, the cell viability assay reagent was added to the culture medium according to the kit's instructions to determine cell viability. […] All controls were treated using the same procedure as the compounds of the present disclosure. The growth inhibition curves for the compounds of the present disclosure were plotted using Prism GraphPad software, and the IC50 values were calculated therefrom.

In experiment [3] the test system is Human B-Cell Lymphoma Cells (RPMI-8226). The experiment is described as above. Particulars: Table IA4, IRAK4 inhibitor-based, RPMI-8226, 500 nM, 96 hours, read-out: Inhibition Rate at 500 nM (%). On the procedure:
as §2, §3, §4

Experiment [4] relates to Human Acute T Lymphoblastic Leukemia Cells (Molt-4). The experiment is described as follows: Inhibition of Molt-4 cell proliferation (CellTiter luminescent viability). Particulars: Homo sapiens, MOLT-4, 96 h, Table IA2, IRAK4 inhibitor-based, 96 hours; for inhibition at 0.01 µM: Molt-4, 10 nM, read-out: Inhibition Rate at 10 nM (%); for inhibition at 0.5 µM: Molt-4, 500 nM, read-out: Inhibition Rate at 500 nM (%).

The test system of experiment [5] is Human myeloid monocytic leukemia cell line (MV-4-11). As to the kind of experiment: Inhibition of MV-4-11 cell proliferation (CellTiter luminescent viability). Particulars: Homo sapiens, MV4-11, Table IA3, IRAK4 inhibitor-based, 96 hours; for inhibition at 0.01 µM: MV-4-11, 10 nM, read-out: Inhibition Rate at 10 nM (%); for inhibition at 0.5 µM: MV-4-11, 500 nM, read-out: Inhibition Rate at 500 nM (%). In a few lines: as §1

The next experiment addresses T1, IRAK4 (Homo sapiens, UniProt Q9NWZ3).
T1 construct: expression of target proteins in cells; endogenous in cells
T1 sequence (Q9NWZ3 1-460): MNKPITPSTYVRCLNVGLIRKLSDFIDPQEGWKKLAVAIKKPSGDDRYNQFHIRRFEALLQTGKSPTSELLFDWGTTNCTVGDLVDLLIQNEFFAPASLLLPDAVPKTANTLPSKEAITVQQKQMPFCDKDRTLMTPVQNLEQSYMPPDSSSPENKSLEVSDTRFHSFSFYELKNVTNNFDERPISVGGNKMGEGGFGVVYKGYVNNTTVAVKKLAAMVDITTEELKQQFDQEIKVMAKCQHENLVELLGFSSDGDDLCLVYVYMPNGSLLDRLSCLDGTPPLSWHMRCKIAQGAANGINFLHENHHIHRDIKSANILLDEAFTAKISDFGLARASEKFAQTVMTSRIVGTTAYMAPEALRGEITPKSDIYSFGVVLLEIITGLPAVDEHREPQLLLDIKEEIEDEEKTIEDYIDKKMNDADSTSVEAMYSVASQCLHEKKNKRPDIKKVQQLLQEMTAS
The experiment is described as follows: Western blot degradation of IRAK4. Particulars: hPBMC Cell; 24 hours. The essentials:
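Immunoblot of drug-treated versus DMSO-treated cell lysates, with densitometric quantification. Values: DC50 (50% band loss, fitted) and loading-control-normalised % remaining or degradation.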
(In general: Immunoblotting shows a protein as a band on a membrane.)

As for `CC(C)(O)c1cc2nc(C3CCN(CC4CCN(c5ccc6c(c5)C(=O)N(N5CCC(=O)NC5=O)C6=O)CC4)CC3)oc2cc1NC(=O)c1cccc(C(F)(F)F)n1` [GT-05222, N-(2-(1-((1-(2-(2,4-dioxotetrahydropyrimidin-1(2H)-yl)-1,3-dioxoisoindolin-5-yl)piperidin-4-yl)methyl)piperidin-4-yl)-5-(2-hydroxypropan-2-yl)benzo[d]oxazol-6-yl)-6-(trifluoromethyl) picolinamide], the inhibition at 0.01 µM in experiment [1] and in experiment [2] was 30 to 40% each time. Moreover, the inhibition (in general, the relative decrease from the control value, in per cent) at 0.5 µM was 25 to 30% in experiment [1] and 30 to 40% in experiment [3].
With `O=C1CCN(N2C(=O)c3cccc(N4CCC(CN5CCC(n6cc(NC(=O)c7cnn8ccc(N9CCOCC9)nc78)c(C(F)F)n6)CC5)CC4)c3C2=O)C(=O)N1` [GT-05224, N-(3-(difluoromethyl)-1-(1-((1-(2-(2,4-dioxotetrahydropyrimidin-1(2H)-yl)-1,3-dioxoisoindolin-4-yl)piperidin-4-yl)methyl)piperidin-4-yl)-1H-pyrazol-4-yl)-5-morpholinopyrazolo[1,5-a]pyrimidine-3-carboxamide], the inhibition at 0.01 µM fell in the range of 15 to 20% in experiment [1], 0 to 3% in experiment [4], 50 to 60% in experiment [5] and 20 to 25% in experiment [2]. Besides, the inhibition at 0.5 µM lay within 60 to 80% in experiment [1], 80 to 100% in experiment [4], 80 to 100% in experiment [5] and 30 to 40% in experiment [3].
As to `Cc1cc(-c2nc(C(=O)Nc3cc4oc(N5CCN(Cc6ccc7c(c6)C(=O)N(N6CCC(=O)NC6=O)C7=O)CC5)nc4nc3N3CC[C@@H](O)C3)co2)ccn1` [GT-05803, (R)—N-(2-(4-((2-(2,4-dioxotetrahydropyrimidin-1(2H)-yl)-1,3-dioxoisoindolin-5-yl)methyl)piperazin-1-yl)-5-(3-hydroxypyrrolidin-1-yl)oxazolo[4,5-b]pyridin-6-yl)-2-(2-methylpyridin-4-yl) oxazole-4-carboxamide], the results for the inhibition at 0.01 µM in experiment [1], in experiment [5] and in experiment [2] were 30 to 40%, 50 to 60% and 25 to 30%, respectively. The values for the inhibition at 0.5 µM in experiment [1], in experiment [5] and in experiment [3] were 25 to 30%, 60 to 80% and 20 to 25%, respectively.
As for `COc1cc2nn([C@H]3CC[C@H](CN4CCN(c5cccc6c5C(=O)N(N5CCC(=O)NC5=O)C6=O)CC4)CC3)cc2cc1NC(=O)c1cccc(C(F)(F)F)c1` [GT-08668, N-(2-((1r,4r)-4-((4-(2-(2,4-dioxotetrahydropyrimidin-1(2H)-yl)-1,3-dioxoisoindolin-4-yl)piperazin-1-yl)methyl)cyclohexyl)-6-methoxy-2H-indazol-5-yl)-3-(trifluoromethyl)benzamide], the inhibition at 0.01 µM in experiment [2] fell in the range of 20 to 25%. For the same compound, the inhibition at 0.5 µM in experiment [3] is 30 to 40%. At IRAK4, the “Degradation of substrate protein IRAK4 (substrate protein remaining %)” value is listed as “A (0%≤substrate protein remaining %≤80%)”.
Take `O=C1CCN(N2C(=O)c3ccc(N4CCC(N5CCC(CN6CCC(n7cc(NC(=O)c8cnn9ccc(N%10CCOCC%10)nc89)c(C(F)F)n7)CC6)CC5)CC4)cc3C2=O)C(=O)N1` [GT-05760, N-(3-(difluoromethyl)-1-(1-((1′-(2-(2,4-dioxotetrahydropyrimidin-1(2H)-yl)-1,3-dioxoisoindolin-5-yl)-[1,4′-bipiperidin]-4-yl)methyl)piperidin-4-yl)-1H-pyrazol-4-yl)-5-morpholinopyrazolo[1,5-a]pyrimidine-3-carboxamide]: the inhibition at 0.01 µM in experiment [1] lay within 25 to 30%; in experiment [5], 50 to 60%; in experiment [2], 25 to 30%. The inhibition at 0.5 µM is 30 to 40% in experiment [1], 80 to 100% in experiment [5] and 30 to 40% in experiment [3].
Take `O=C1CCN(N2Cc3cc(CN4CCC(n5cc(NC(=O)c6coc(-c7ccnc(NCC(F)(F)F)c7)n6)c(C(F)F)n5)CC4)ccc3C2=O)C(=O)N1` [GT-05184, N-(3-(difluoromethyl)-1-(1-((2-(2,4-dioxotetrahydropyrimidin-1(2H)-yl)-1-oxoisoindolin-5-yl)methyl)piperidin-4-yl)-1H-pyrazol-4-yl)-2-(2-((2,2,2-trifluoroethyl)amino)pyridin-4-yl) oxazole-4-carboxamide]: the inhibition at 0.01 µM lay in the range of 5 to 10% in experiment [1], 3 to 7% in experiment [4], 50 to 60% in experiment [5] and 20 to 25% in experiment [2]. Besides, the inhibition at 0.5 µM in experiment [1], in experiment [4], in experiment [5] and in experiment [3] was 80 to 100% in each case.
`Cc1cc(-c2nc(C(=O)Nc3cc4oc(N5CCN(Cc6ccc7c(c6)CN(N6CCC(=O)NC6=O)C7=O)CC5)nc4nc3N3CC[C@@H](O)C3)co2)ccn1` [GT-05750, (R)—N-(2-(4-((2-(2,4-dioxotetrahydropyrimidin-1(2H)-yl)-1-oxoisoindolin-5-yl)methyl)piperazin-1-yl)-5-(3-hydroxypyrrolidin-1-yl)oxazolo[4,5-b]pyridin-6-yl)-2-(2-methylpyridin-4-yl) oxazole-4-carboxamide]: the values for the inhibition at 0.01 µM in experiment [5] and in experiment [2] were 36 to 45% and 25 to 30%, respectively. Besides, the inhibition at 0.5 µM in experiment [5] lay within 80 to 100%; in experiment [3], 20 to 25%.
On to `CC(C)(O)c1cc2nc(C3CCN(Cc4ccc5c(c4)CN(N4CCC(=O)NC4=O)C5=O)CC3)sc2cc1NC(=O)c1cccc(C(F)(F)F)n1` [GT-05747, N-(2-(1-((2-(2,4-dioxotetrahydropyrimidin-1(2H)-yl)-1-oxoisoindolin-5-yl)methyl)piperidin-4-yl)-5-(2-hydroxypropan-2-yl)benzo[d]thiazol-6-yl)-6-(trifluoromethyl) picolinamide], for which the inhibition at 0.01 µM in experiment [5] was 36 to 45%; in experiment [2] it was 25 to 30%. In addition, the values for the inhibition at 0.5 µM in experiment [5] and in experiment [3] were 80 to 100% and 25 to 30%, respectively.
